Experiments:
[1] = target: ligand binding domain of the chemoreceptor ECA_RS12390 (PacP-LBD, R1, WP_011094075.1) (Pectobacterium atrosepticum, UniProt Q6D464); assay: ITC binding to PacP-LBD; conditions: 15 °C, Nb = no binding
Procedure: (§1) Plasmids for the overexpression of the different proteins were transformed into E. coli BL21(DE3). The resulting strains were grown under continuous stirring (200 rpm) at 30 °C in 2-L Erlenmeyer flasks containing 500 mL of LB medium supplemented with 50 μg/mL kanamycin. At an OD660 of 0.5, protein expression was induced by the addition of 0.1 mM isopropyl β-D-1-thiogalactopyranoside. Growth was continued at 16 °C overnight prior to cell harvesting by centrifugation at 10,000 × g for 20 min. Cell pellets were resuspended in buffer A (Additional file 2: Table S4) and subsequently broken by French press treatment at 62.5 lb/in^2. After centrifugation at 20,000 × g for 30 min, the supernatants were loaded onto 5-mL HisTrap HP columns (Amersham Biosciences) equilibrated with buffer A, and the proteins were eluted with a linear gradient of buffer B (Additional file 2: Table S4). All proteins contain a hexa-histidine tag at the N-terminal extension (Additional file 2: Table S3) and were purified at 4 °C. The purified proteins were dialyzed overnight into the corresponding analysis buffers (Additional file 2: Table S4) for immediate analysis.
(§2) All experiments were conducted on a VP microcalorimeter (Microcal, MA) at 15 °C for PacP-LBD and at 20 °C for the remaining proteins. Proteins were dialyzed into the analysis buffers specified in Additional file 2: Table S4, placed into the sample cell and titrated with aliquots of ligand solutions (1 to 10 mM) freshly prepared in dialysis buffer. The mean enthalpies measured from the injection of the ligands into the analysis buffer were subtracted from the raw titration data prior to data analysis with the MicroCal version of ORIGIN. The data were fitted with the “One binding site model” of ORIGIN.

[2] = target: LBD of chemoreceptor R3 (WP_006464688.1) (Herbaspirillum frisingense, UniProt A0ABU1PC34); assay: ITC binding to R3-LBD; conditions: 20 °C, Nb = no binding
Procedure: as §1, §2

[3] = target: LBD of chemoreceptor R6 (WP_174062248.1); assay: ITC binding to R6-LBD; set-up: species or system Agrobacterium larrymoorei; conditions: 20 °C, Nb = no binding
Procedure: as §1, §2

[4] = target: LBD of chemoreceptor R10 (WP_028866120.1); assay: ITC binding to R10-LBD; set-up: species or system Psychromonas aquimarina; conditions: 20 °C, Nb = no binding
Procedure: as §1, §2

[5] = test system: ECA_RS12390-LBD (PacP-LBD); assay: Thermal shift ligand screening of PacP-LBD; type: binding, Pectobacterium atrosepticum; conditions: thermal shift assay, Biolog arrays PM1, PM2A, PM3B, PM4A
Procedure: Assays were carried out on a MyIQ2 Real-Time PCR instrument (Bio-Rad, Hercules, CA, USA). Ligand solutions were prepared by dissolving the array compounds in 50 µL of Milli-Q water, which, according to the manufacturer, corresponds to a concentration of 10–20 mM. Freshly purified proteins were dialyzed into analysis buffer (Additional file 2: Table S4). Compound arrays PM1, PM2A (carbon sources), PM3B (nitrogen sources), and PM4A (phosphorus and sulfur sources) from Biolog (https://www.biolog.com/) were used. The compositions of these arrays are provided in Additional file 2: Table S1. The experiments were conducted in 96-well plates, and each assay mixture contained 20 µL of the dialyzed protein (at 80–50 µM), 2 µL of 5 × SYPRO orange (Life Technologies, Eugene, Oregon, USA), and 2.5 µL of the resuspended array compound or the equivalent amount of buffer in the ligand-free control. The samples were heated from 23 to 85 °C at a scan rate of 1 °C/min. The protein unfolding curves were monitored by detecting changes in SYPRO® Orange fluorescence. The Tm values were determined from the first derivative values of the raw fluorescence data.

[6] = test system: P. atrosepticum SCRI1043 pacP mutant (MpacP); assay: Quantitative capillary chemotaxis assay, pacP mutant; type: cell-based, Pectobacterium atrosepticum; conditions: 1 mM ligand
Text: A mutant defective in ECA_RS12390 was constructed by homologous recombination using a derivative plasmid of the suicide vector pKNG101. Briefly, a 0.5-kb fragment corresponding to the region encoding the LBD of ECA_RS12390 was amplified by the primers specified in Additional file 2: Table S2 and cloned into pGEM®-T. The resulting plasmid pGEM::ECA_RS12390 was digested with XmaI, and the 0.5-kb insert was cloned into the same site at pKNG101 to generate pKNG101::ECA_RS12390. This plasmid was subsequently transformed into P. atrosepticum SRCI1043 via biparental conjugation using E. coli β2163. All the plasmids were verified by PCR and sequencing. The pETb(+) derivatives encoding the LBD of the different receptors analyzed in this study (Table 1) were purchased from GeneScript. Plasmid pBBR-ECA_RS12390 was constructed by amplifying the pacP gene using the primers detailed in Additional file 2: Table S2 and cloning of the PCR product into the NdeI/BamHI sites of pBBR1MCS2_START. The sequences of the proteins analyzed in this study are provided in Additional file 2: Table S3. The ECA_RS12390 nucleotide sequence is available in the published genome of P. atrosepticum SCRI1043 [60].
Overnight cultures of P. atrosepticum SCRI1043 were grown at 30 °C in minimal medium. At an OD660 of 0.4–0.45, the cultures were washed twice with chemotaxis buffer (50 mM K2HPO4/KH2PO4, 20 μM EDTA, 0.05% (v/v) glycerol, pH 7.0) and diluted to an OD660 of 0.1 in the same buffer. Subsequently, 230 μL of the resulting bacterial suspension was placed into the wells of 96-well plates. One-microliter capillary tubes (P1424, Microcaps; Drummond Scientific) were heat-sealed at one end and filled with either chemotaxis buffer (negative control) or chemotaxis buffer containing PacP ligands at a concentration of 1 mM. The capillaries were immersed in the bacterial suspensions at their open ends. After 30 min at room temperature, the capillaries were removed from the bacterial suspensions, rinsed with sterile water, and the contents were expelled into 1 mL of 40 mM K2HPO4, 15 mM KH2PO4. Serial dilutions were plated onto minimal medium supplemented with 15 mM glucose as the carbon source. The number of colony-forming units was determined after 36 h of incubation at 30 °C. In all the cases, the data were corrected with the number of cells that swam into the buffer-containing capillaries.

[7] = test system: Pectobacterium atrosepticum SCRI1043; assay: Growth experiment, sole phosphorus source; type: cell-based; conditions: PFM9 minimal medium, 5 mM ligand, 30 °C, 48 h
Procedure: P. atrosepticum SCRI1043 was cultured overnight in phosphate-free M9-based medium (PFM9) supplemented with 20 mM glucose as the carbon source and 500 µM inorganic phosphate as the phosphate source. Cultures were washed and then diluted to an OD600 of 0.02 in PFM9 supplemented with different PacP ligands as the sole carbon or phosphorous source at a final concentration of 5 mM. Subsequently, 200 µL aliquots of these cultures were transferred into microwell plates, which were subsequently grown at 30 °C on a Bioscreen microbiological growth analyzer (Oy Growth Curves Ab Ltd., Helsinki, Finland) for 48 h.

Sequence of LBD of chemoreceptor R3 (WP_006464688.1) (A0ABU1PC34 entry or part of it): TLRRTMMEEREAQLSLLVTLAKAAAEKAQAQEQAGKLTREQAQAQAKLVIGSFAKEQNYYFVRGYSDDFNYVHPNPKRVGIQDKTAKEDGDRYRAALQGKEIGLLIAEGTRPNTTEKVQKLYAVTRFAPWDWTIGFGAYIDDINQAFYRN
Sequence of ligand binding domain of the chemoreceptor ECA_RS12390 (PacP-LBD, R1, WP_011094075.1) (Q6D464 entry or part of it): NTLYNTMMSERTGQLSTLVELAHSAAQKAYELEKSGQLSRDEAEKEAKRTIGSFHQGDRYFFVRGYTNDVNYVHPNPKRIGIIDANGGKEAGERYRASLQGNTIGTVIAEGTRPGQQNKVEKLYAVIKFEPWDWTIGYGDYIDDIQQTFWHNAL

Structure (SMILES)	Kd [1]	KD [2]	Kd [2]	KD [3]	KD [4]	Tm change with respect to the ligand-free protein [5]	chemotaxis (capillary assay) [6]	growth as sole phosphorus source [7]
O=P(O)(O)OCC(O)CO (stereo not drawn) [glycerol 3-phosphate]	3 ± 0.2 µM	bound	33 ± 1 µM	Nb	Nb	significant increases in Tm	Only glycerol 2-phosphate served as an attractant for the mutant	supported growth
O=C(O)[C@@H](O)COP(=O)(O)O [3-phosphoglycerate]	88 ± 5 µM	Nb		Nb	Nb	significant increases in Tm	Only glycerol 2-phosphate served as an attractant for the mutant	permitted growth

— PMC12395807, “Chemoreceptor family in plant-associated bacteria responds preferentially to the plant signal molecule glycerol 3-phosphate” (Genome Biology, 2025)
